Reference: US20230338370A1, “Treatment of Cancer with TOR Kinase Inhibitors” (Signal Pharmaceuticals, LLC, priority 2012, published 2023)

How the values were obtained:
[1] = test system: MDA-MB-231 tumors; assay: MDA-MB-231 Triple Negative (TN) Breast Cancer Model (xenograft); assay type: in vivo; settings: nude mice, subcutaneous MDA-MB-231 xenograft; oral QD for up to 26 days, 1 to 5 mg/kg
Procedure: A xenograft study was conducted with MDA-MB-231 tumor-bearing mice. Nude mice were inoculated subcutaneously with MDA-MB-231 cells in the flank region above the right hind leg. Following inoculation of animals, the tumors were allowed to grow to about 150 mm^3 prior to randomization. On Day 38 following tumor cell inoculation, the mice bearing MDA-MB-231 tumors ranging between 65 and 304 mm^3 were pooled together and randomized into various treatment groups. […] The positive control Taxotere (15 mg/kg, Q4D) was administered via the intravenous (IV) route. Taxotere was diluted in saline. Tumors were measured twice a week using calipers and tumor volumes were calculated using the formula of W2 × L / 2 (wherein “W” is tumor width and “L” is tumor length).

[2] = test system: HCC38; assay: Growth inhibition assay for Breast Cancer (BC) Cell lines; assay type: cell-based; settings: Homo sapiens; HCC38, TN; 96 hours, Cell Titer-Glo
Procedure: (§1) Growth inhibition assay for Breast Cancer (BC) Cell lines. Compounds 1 (a TOR kinase inhibitor set forth herein having molecular formula C16H16N8O) and 2 (a TOR kinase inhibitor set forth herein having molecular formula C17H18N8O2) were dissolved in dimethyl sulfoxide (DMSO) to prepare a 10 mM stock solution. A serial titration was performed to produce a working concentration range of 1.5 µM to 10 mM. Aliquots to produce final concentrations of 1.5 nM to 10 µM were spotted via an acoustic dispenser (EDC ATS-100) into an empty 384-well plate. Compounds 1 and 2 were spotted in a 10-point serial dilution fashion (3-fold dilution) in duplicate within the plate. The DMSO concentration was kept constant for a final assay concentration of 0.1% DMSO. Plates were replicated for use with different cell lines and testing periods. After compound plate replication, all plates were sealed (Agilent ThermoLoc) and stored at -20° C. for up to 1 month. […] When ready for testing, plates were removed from the freezer, thawed, and unsealed just prior to the addition of the test cells. Prior to testing, cells were grown and expanded in culture flasks to provide sufficient amounts of starting material. Cells were then diluted to the appropriate densities and added directly to the compound-spotted 384-well plates. Cells were allowed to grow for 96 hours at 37° C./5% CO2. At the time when compound was added (t0), initial cell number was assessed via a viability assay (Cell Titer-Glo) by quantifying the level of luminescence generated by ATP present in viable cells. After 96 hours, cell viability of compound-treated cells was assessed via Cell Titer-Glo and luminescence measurement. Cell lines were assayed for growth inhibition by Compounds 1 and 2 in at least 3 independent tests. A control cell line (the lung tumor cell line, A549) was included in each of the assays. The compound response against this control cell line was monitored closely to enable comparison of the data generated through the assay period. All data were normalized and presented as a percentage of the DMSO-treated cells. Results were then expressed as a GI50 value. The GI50 value corrects for the cell count at time zero.

[3] = test system: CAL-85-1; assay: as above; assay type: cell-based; settings: Homo sapiens; CAL-85-1, TN; 96 hours, Cell Titer-Glo
Procedure: as §1

[4] = test system: MDA-MB-231; assay: as above; assay type: cell-based; settings: Homo sapiens; MDA-MB-231, TN; 96 hours, Cell Titer-Glo
Procedure: as §1

[5] = test system: HCC2157; assay: as above; assay type: cell-based; settings: Homo sapiens; HCC2157, TN; 96 hours, Cell Titer-Glo
Procedure: as §1

[6] = test system: MT-3; assay: as above; assay type: cell-based; settings: MT-3, TN; 96 hours, Cell Titer-Glo
Procedure: as §1

[7] = test system: MDA-MB-436; assay: as above; assay type: cell-based; settings: Homo sapiens; MDA-MB-436, TN; 96 hours, Cell Titer-Glo
Procedure: as §1

[8] = test system: CAL-148; assay: as above; assay type: cell-based; settings: Homo sapiens; CAL-148, TN; 96 hours, Cell Titer-Glo
Procedure: as §1

[9] = test system: HCC1937; assay: as above; assay type: cell-based; settings: Homo sapiens; HCC1937, TN; 96 hours, Cell Titer-Glo
Procedure: as §1

[10] = test system: BT-549; assay: as above; assay type: cell-based; settings: Homo sapiens; BT-549, TN; 96 hours, Cell Titer-Glo
Procedure: as §1

[11] = test system: MDA-MB-157; assay: as above; assay type: cell-based; settings: Homo sapiens; MDA-MB-157, TN; 96 hours, Cell Titer-Glo
Procedure: as §1

[12] = test system: CAL-51; assay: as above; assay type: cell-based; settings: Homo sapiens; CAL-51, TN; 96 hours, Cell Titer-Glo
Procedure: as §1

[13] = test system: HCC1187; assay: as above; assay type: cell-based; settings: Homo sapiens; HCC1187, TN; 96 hours, Cell Titer-Glo
Procedure: as §1

[14] = test system: CAL-120; assay: as above; assay type: cell-based; settings: Homo sapiens; CAL-120, TN; 96 hours, Cell Titer-Glo
Procedure: as §1

[15] = test system: BT-20; assay: as above; assay type: cell-based; settings: Homo sapiens; BT-20, TN; 96 hours, Cell Titer-Glo
Procedure: as §1

[16] = test system: HDQ-P1; assay: as above; assay type: cell-based; settings: Homo sapiens; HDQ-P1, TN; 96 hours, Cell Titer-Glo
Procedure: as §1

[17] = test system: HCC1143; assay: as above; assay type: cell-based; settings: Homo sapiens; HCC1143, TN; 96 hours, Cell Titer-Glo
Procedure: as §1

[18] = test system: HS578T; assay: as above; assay type: cell-based; settings: Homo sapiens, Hs-578T, TN, 96 hours, Cell Titer-Glo
Procedure: as §1

[19] = test system: DU4475; assay: as above; assay type: cell-based; settings: Homo sapiens, DU-4475; DU4475, TN; 96 hours, Cell Titer-Glo
Procedure: as §1

GI50 [2]: 430 nM
GI50 [3]: 88.8 nM
GI50 [4]: 185 nM
GI50 [5]: 51.5 nM
GI50 [6]: 150 nM
GI50 [7]: 279 nM
GI50 [8]: 187 nM
GI50 [9]: 161 nM
GI50 [10]: 146 nM
GI50 [11]: 472 nM
GI50 [12]: 71 nM
GI50 [13]: 195 nM
GI50 [14]: 182 nM
GI50 [15]: 116 nM
GI50 [16]: 162 nM
GI50 [17]: 400 nM
GI50 [18]: 286 nM
GI50 [19]: 237 nM
Compound: CCN1C(=O)CNc2ncc(-c3ccc(-c4nc[nH]n4)nc3C)nc21 [Compound 1, 1-ethyl-7-(2-methyl-6-(1H-1,2,4-triazol-3-yl)pyridin-3-yl)-3,4-dihydropyrazino[2,3-b]pyrazin-2(1H)-one]
tumor growth [1]: inhibited MDA-MB-231 breast cancer tumor growth
